The subject of one data set is H1N1. Put plainly: H1N1 inhibition assay on MDCK cells. In kind it is cell-based, Influenza virus H1N1. The procedure:
MDCK cells were pre-plated in 96-well plates. The following day, concentrations of compounds ranging from 50 μM to 0.0001 μM in DMSO were mixed with H1N1 (MOI 0.05 pfu/cell) and incubated for 1 hour at 37° C. The mixtures were subsequently added to the cells for 1 h at 37° C., after a washout, cells were overlaid with MEM for 16 h at 37° C. Cells were then fixed and subjected to specific immunostaining using a Flu A monoclonal antibody (Merck 5001) in order to visualize infected cells. EC50 were calculated by comparing numbers of infected cells in treated and untreated wells. The effective concentration producing 50% reduction in plaque formation (EC50) was determined using Prism software. The selectivity index (SI) was calculated by dividing the CC50 by the EC50 value.

Data set [1] is described as follows: Cell viability (MTS) assay, Hep-2 cells. It counts as cell-based. The note with it: human, conditions of the RSV assay. The procedure: (§1) Cell viability was measured using the MITS [3-(4,5-dimethylthiazol-2-yl)-5-(3 carboxy methoxy phenyl)-2-(4-sulfophenyl)-2H-tetrazolium] assay. Cell cultures were seeded in 96-well plates and were incubated with different concentrations of compounds of the invention in triplicate under the same experimental conditions described for the antiviral assays. Cell viability was determined using the CellTiter 96 Proliferation Assay Kit (Promega, Madison, WI, USA) according to the manufacturer's instructions. Absorbances were measured using a Microplate Reader (Model 680, BIORAD) at 490 nm. The effect on cell viability at different concentrations of the compound was expressed as a percentage, by comparing absorbances of treated cells with those of cells incubated with culture medium and equal volumes of vehicle. The 50% cytotoxic concentrations (CC50) and 95% confidence intervals (CIs) were determined using Prism software (Graph-Pad Software, San Diego, CA).

For the next data set, the system named is HeLa cells. Put plainly: Cell viability (MTS) assay, HeLa cells. The conditions noted are these: conditions of the Ad5 assay. It counts as cell-based, human. The procedure:
as §1

Data set [2] is described as follows: Cell viability (MTS) assay, HeLa cells. It counts as cell-based, human. The conditions noted are these: human, HeLa cells; conditions of the HPV-16 assay. The procedure:
as §1

Another data set in a line: in vitro. The note with it: dog.
A further data set relates to DENV-2. Put plainly: DENV plaque reduction assay on Huh-7 cells. In kind it is cell-based, Dengue virus. As for the experimental part:
The effect of compounds on DENV infection was evaluated by plaque reduction assay. Huh-7 cells were pre-plated 24 h in advance in 24-well plates at a density of 10^5 cells. Concentrations of compounds ranging from 50 μM to 0.0001 μM in DMSO were mixed with DENV-2 (MOI 0.01 pfu/cell) and incubated for 1 hour at 37° C. The mixtures were subsequently added to the cells, which were then incubated at 37° C. for 2 h. The virus inoculum was then removed and the cells washed and overlaid with a medium containing 1.2% methylcellulose (Sigma). After further incubation at 37° C. for 72 h cells were fixed and stained with 0.1% crystal violet in 20% ethanol and viral plaques counted. The effective concentration producing 50% reduction in plaque formation (EC50) were determined using Prism software by comparing drug-treated wells with wells treated with medium and DMSO. The selectivity index (SI) was calculated by dividing the CC50 by the EC50 value.
A general note: Plaques are areas of infected cells; plaque reduction assays count them against a control.

The test system of a further data set is HSV-2. Put plainly: Binding of virus to cell (ELISA, immunofluorescence). In kind it is cell-based, Herpes 2 virus (HSV-2). The note with it: 10 μM, HSV-2, Vero cells. The procedure: Vero Cells were plated in 96 well plates. The following day 10 μM of compound 15b in DMSO and HSV-2 (MOI 10 pfu/cell) were incubated for 1 h at 37° C. and subsequently added on cells for 2 hours at 4° C. Cells were then fixed with 4% paraformaldehyde, air dried, and blocked with 5% bovine serum albumin (BSA) in phosphate-buffered saline (PBS)-Tween. Binding of virus to vero cells was detected using the polyclonal HSV-2 antibody (Dako, Denmark) (diluted 1:250) incubated for 1 h at room temperature, washed three times with PBS-Tween, and incubated for 1 h at 37° C. with anti-rabbit conjugated to horseradish peroxidase (1:500). At the end of incubation, plates were washed three times with PBS-Tween, ABTS[2,2-azinobis(3-ethyl benz thiazoline sulfonic acid)] (A1888 SIGMA ALDRICH) substrate was added for 30 minutes (Thermo Scientific, Rockford, IL), and the absorbance at 405 nm was read.
Vero cells were pre-plated on coverslips and the following day the binding or entry protocol described above was applied. […] Rhodamine conjugated anti-rabbit IgG (Santa Cruz) was then added on cells for 1 h at 37° C. following 3 washes coverslips were mounted on microscope glasses and observed with Zeiss LSM510 fluorescence microscope (Zeiss, Oberkochen, Germany) and images were acquired (FIG. 3A, 3B).
In general terms: In an ELISA, binding on a coated surface is turned into a signal by an enzyme label.

Another data set relates to HSV2. Put plainly: Virucidal assay. It counts as cell-based, Herpes 2 virus (HSV-2). The note with it: 10 μM, 2 h at 37° C., titrated at dilutions where compound no more active. As for the experimental part:
Approximately 10^5 PFU of HSV2 plus 10 μM of 15b in DMSO were added to MEM and mixed in a total volume of 100 μl. The virus-compound mixtures were incubated for 2 h at 37° C. then diluted serially to the non-inhibitory concentration of test compound; the residual viral infectivity was determined by viral plaque assay (FIG. 2).

Another data set concerns HSV-2 Acy R. Put plainly: microbe, parasite or virus in culture. The conditions noted are these: Human alphaherpesvirus 2, Vero. In kind it is cell-based, HSV-2 acyclovir resistant.

pEC50: −log10 of the molar value. “Also recorded” adds a separate entry of the source.

The values below come from patent US11814366B2, “Antiviral compounds and use thereof” (UNIVERSITA DEGLI STUDI DI SIENA, priority 2018, dated 2023).

On to `O=C1NC(=S)N(CCc2ccccc2)C(=O)/C1=C\c1ccc(-c2ccc(C(=O)O)c(O)c2)[nH]1` [Compound 15b, (Z)-4-(5-((4,6-dioxo-1-phenethyl-2-thioxotetrahydropyrimidin-5(2H)-ylidene)methyl)-1H-pyrrol-2-yl)-2-hydroxybenzoic Acid], for which the SI selectivity index in the data set with H1N1 (H1N1, CC50 divided by EC50) was more than 77; in the data set with DENV-2 (DENV-2, CC50 divided by EC50) it was 5.6. Also, the pEC50 with H1N1 (Influenza A virus, H1N1, MDCK) was 5.91; with DENV-2 (Dengue virus, DENV2, Huh-7, DENV-2 infected cells) it was 5.85; in the data set on HSV-2 Acy R, 7.08. Further, the 90% effect concentration (EC90) in the data set with H1N1 (Influenza A virus, H1N1, MDCK) came to 3.88 µM; in the data set with HSV-2 Acy R, 0.42 µM. Moreover, the CC50 in data set [1] is 241 µM; in the data set with HeLa cells, more than 300 µM; in data set [2], more than 300 µM; in the data set “in vitro”, more than 300 µM. Moreover, the “viral binding / percentage of bound virus” value in the data set on HSV-2 was “not impairing viral binding; also recorded: the same”. Moreover, the “residual viral infectivity after virucidal incubation” value in the data set with HSV2 is listed as “never regained”.

The pEC50 is the EC50 on a negative log10 scale, so that one unit is a factor of ten. Lower therefore signals a large EC50. By EC90 is commonly meant the concentration needed for an effect of 90%. A higher EC90 goes with weaker potency.
